Reference: US20250268931A1, “TRANSCRIPTIONAL INHIBITOR FOR IMMUNE-RELATED GENE” (The University of Tokyo, priority 2022, published 2025)

Key:
[1] = system: RBD; test: RBD concentration in plasma after mRNA vaccine plus Poly(I:C) (ELISA); assay type: in vivo, mice; settings: 400 μg/mouse i.m. or i.p., 24 h later mRNA vaccine 1 μg/mouse i.m. plus Poly(I:C) 250 μg/mouse, blood one day later
[2] = system: IFN-β; test: IFN-β transcription in peritoneal macrophages treated with mRNA vaccine against SARS-COV-2 (qRT-PCR, ELISA); assay type: cell-based, mice; settings: 3 μM or 10 μM, mRNA vaccine (Moderna) 1 μg/mL 20 hours
[3] = system: IFN-β, IL-6 and TNF-α; test: Cytokine protein expression in peritoneal macrophages treated with LNP-mRNA encoding ovalbumin (ELISA); assay type: cell-based, mice; settings: 6 μM, LNP-mRNA (OVA) 0.5 μg/mL 20 to 24 hours
Experimental: Peritoneal macrophages were harvested from wild-type mice, and were then seeded on a 96-well plate at a cell density of 2.5×10^5 cells/well, followed by culturing for 2 hours. Thereafter, the cultured cells were washed twice with PBS. Subsequently, IRF-PIPA 3 was suspended in 10% FBS-RPMI or D-MEM to a final concentration of 6 μM, and was then added to the wells. After completion of the culture for 16 hours, an mRNA vaccine was added to the cultured cells to a final concentration of 0.5 μg/mL, and the obtained mixture was then cultured for 20 to 24 hours. Thereafter, the culture supernatant was recovered, and each protein concentration of IFN-β, IL-6 or TNF-α was then measured by ELISA.
2×10^4 Raw264.7 cells were seeded on a plate, and were then treated with IRF-PIPA 1, IRF-PIPA 2, IRF-PIPA 3 or IRF-PIPA 4 for 24 hours. Thereafter, the cells were stimulated with LPS (Lipopolysaccharide, SIGMA-ALDRICH) for 16 hours, and the culture supernatant was then recovered. The concentration of cytokine in the culture supernatant was measured using ELISA kit (R&D SYSTEMS) according to the standard protocols. The culture supernatant was diluted with 1% BSA-PBS, as necessary, and was then analyzed. 2.5×10^5 Mouse peritoneal macrophages were seeded on a plate, and were then treated with IRF-PIPA 3 for 16 or 24 hours. […] The concentration of cytokine in the culture supernatant was measured using ELISA kit (R&D SYSTEMS) according to the same standard protocols. On the other hand, the concentration of cytokine in mouse plasma was measured by administering 400 μg/mouse IRF-PIPA 3 into the abdominal cavity of wild-type mice, then administering 250 μg of Poly(I:C) into the same abdominal cavity 24 hours after the IRF-PIPA 3 administration, then collecting blood further 2 hours after the Poly(I:C) administration, and then measuring the cytokine concentration in the plasma using ELISA kit (R&D SYSTEMS) according to standard protocols.

[4] = system: Ifnb1, Il6, and Tnf genes; test: In vivo relative mRNA expression in peritoneal macrophages after Poly(I:C) (qRT-PCR); design: species or system mice; settings: 400 μg/mouse i.p., Poly(I:C) 250 μg/mouse i.p. 3 h later, peritoneal macrophages 2 h later
Experimental: IRF-PIPA 3 was administered into the abdominal cavity of wild-type mice in an amount of 400 μg/mouse, and 3 hours after the administration, 250 μg/mouse Poly(I:C) was also administered into the abdominal cavity. Two hours after the administration of Poly(I:C), peritoneal macrophages were recovered, and the relative expression levels of Ifnb1, Il6, and Tnf genes were then analyzed by qRT-PCR.

[5] = system: IFN-β; test: IFN-β concentration in culture supernatant of LPS-stimulated Raw264.7 cells (ELISA); assay type: cell-based; settings: PIPA 1, 3 or 10 μM 24 h, then LPS 20 ng/mL 16 h
Experimental: Raw264.7 cells, a macrophage cell line, were seeded on a 96-well plate at a cell density of 2×10^4 cells/well, and were then culture for 8 hours for adhesion. Thereafter, IRF-PIPA was added to the cultured cells to final concentrations of 1, 3, or 10 μM. After completion of the culture for 24 hours, LPS was added to the cultured cells to a final concentration of 20 ng/mL, and the obtained mixture was then cultured for 16 hours, followed by the recovery of the supernatant. The supernatant was 2-fold diluted with 1% BSA-PBS, and the IFN-β concentration was then measured by ELISA.
Raw264.7 cells, a cell line, were purchased from RIKEN Cell Bank, and were then cultured using D-MEM (Nacalai Tesque) containing 10% FBS (SIGMA-ALDRICH) and Penicillin-Streptomycin mixed solution (Nacalai Tesque).
2×10^4 Raw264.7 cells were seeded on a plate, and were then treated with IRF-PIPA 1, IRF-PIPA 2, IRF-PIPA 3 or IRF-PIPA 4 for 24 hours. Thereafter, the cells were stimulated with LPS (Lipopolysaccharide, SIGMA-ALDRICH) for 16 hours, and the culture supernatant was then recovered. The concentration of cytokine in the culture supernatant was measured using ELISA kit (R&D SYSTEMS) according to the standard protocols. The culture supernatant was diluted with 1% BSA-PBS, as necessary, and was then analyzed. 2.5×10^5 Mouse peritoneal macrophages were seeded on a plate, and were then treated with IRF-PIPA 3 for 16 or 24 hours. Thereafter, the cells were stimulated with Poly(I:C) (InvivoGen) for 16 hours or with mRNA vaccine (Moderna) for 20 to 24 hours, and the culture supernatant was then recovered. The concentration of cytokine in the culture supernatant was measured using ELISA kit (R&D SYSTEMS) according to the same standard protocols. On the other hand, the concentration of cytokine in mouse plasma was measured by administering 400 μg/mouse IRF-PIPA 3 into the abdominal cavity of wild-type mice, then administering 250 μg of Poly(I:C) into the same abdominal cavity 24 hours after the IRF-PIPA 3 administration, then collecting blood further 2 hours after the Poly(I:C) administration, and then measuring the cytokine concentration in the plasma using ELISA kit (R&D SYSTEMS) according to standard protocols.

[6] = system: Ifnb1, Il6, and Tnf genes; test: Relative mRNA expression in Poly(I:C)-stimulated peritoneal macrophages (qRT-PCR); assay type: cell-based, mice; settings: 6 μM 24 h, Poly(I:C) 1 μg/mL 2, 4 or 6 h, qRT-PCR relative to GAPDH
Experimental: Using PBS, peritoneal macrophages were harvested from mice, and were then seeded on a 96-well plate at a cell density of 2.5×10^5 cells/well, followed by culturing for 2 hours. Thereafter, the cultured cells were washed twice with PBS. IRF-PIPA 3 was suspended in a 10% FBS-RPMI or MEM medium to a final concentration of 6 μM, and the obtained suspension was then added to the cells. After completion of the culture for 24 hours, Poly(I:C) was added to the cultured cells to a final concentration of 1 μg/mL. The obtained mixture was cultured for 2, 4, or 6 hours, and the cells were recovered. Using TRIsure, the recovered cells were suspended at 100 µL/well and was then recovered. Thereafter, the relative expression levels of Ifnb1, Il6, and Tnf genes were measured by qRT-PCR.
Mouse peritoneal macrophages were harvested from 6-week-old CL57B/6 mice (CLEA Japan, Inc.) by peritoneal lavage using 7 mL of PBS (Nacalai Tesque), and the cells adhered to the culture plate by culture for 2 hours were used in experiments. The culture was carried out using an RPMI or D-MEM medium (Nacalai Tesque) containing 10% FBS (SIGMA-ALDRICH) and Penicillin-Streptomycin mixed solution (Nacalai Tesque). The CL57B/6 mice were bred in an SPF environment.
2.5×10^5 Peritoneal macrophages were seeded on a plate, and were then treated with IRF-PIPA 3 for 24 hours. […]

Question: For CC(=O)Nc1cn(C)c(C(=O)Nc2cc(C(=O)NCCC(=O)Nc3cc(C(=O)Nc4cn(C)c(C(=O)NCCC(=O)Nc5cn(C)c(C(=O)NCCCC(=O)Nc6cc(C(=O)Nc7cc(C(=O)Nc8cc(C(=O)NCCC(=O)Nc9cc(C(=O)Nc%10cc(C(=O)NCCC(=O)NCCCN(C)C)n(C)c%10)n(C)c9)n(C)c8)n(C)c7)n(C)c6)n5)n4)n(C)c3)n(C)c2)n1 [IRF-PIPA 3], which “concentration of the RBD protein in plasma” value [1] is on record?
Answer: a decrease in the concentration of the RBD protein caused by Poly(I: C) was suppressed

Question: What about the “IFN-b transcription after addition of the mRNA vaccine (Ifnb1 relative expression, IFN-β concentration)” value [2] of the same compound?
Answer: strongly suppressed IFN-b transcription after addition of the mRNA vaccine in a concentration-dependent manner

Question: What about the “expression of IFN-β protein after LNP-mRNA” value [3] of the same compound?
Answer: strongly suppressed

Question: What about the “expression of IL-6 protein after LNP-mRNA” value [3] of the same compound?
Answer: strongly suppressed

Question: What about the “expression of TNF-α protein after LNP-mRNA” value [3] of the same compound?
Answer: strongly suppressed

Question: And the “expression level of Ifnb1 mRNA in vivo” value [4]?
Answer: significantly suppressed

Question: And the “expression level of Il6 mRNA in vivo” value [4]?
Answer: significantly suppressed

Question: And the “expression level of Tnf mRNA in vivo” value [4]?
Answer: significantly suppressed

Question: And the “concentration dependence of suppression of IFN-β production” value [5]?
Answer: concentration-dependent suppression was observed

Question: What about the “suppression of IFN-β production” value ([5]; ELISA of supernatant) of the same compound?
Answer: strongest suppressive action among the 4 PIPAs

Question: What about the “relative expression level of Ifnb1 mRNA” value [6] of the same compound?
Answer: strongly suppressed induction of the expression of Ifnb1 mRNA in a concentration-dependent manner
